Here are results for three compounds from US9648878B2, “Herbicidal agents containing flufenacet” (BAYER CROPSCIENCE AG, priority 2012, dated 2017).

For assay [1], the system named is LOLSS resistant to HRAC group A. In words: Greenhouse post-emergence herbicidal action on resistant Lolium biotype (HRAC group A resistant). In kind it is in vivo, Lolium spp. The settings on record: post-emergence (PO, BBCH 11); dose g of AS/ha: flufenacet 60, aclonifen 150, diflufenican 37.5, (A)+(B)+(C) 60+150+37.5, pinoxaden+cloquintocet-mexyl 60+15, mesosulfuron+iodosulfuron+mefenpyr 15+3+45. Here is the method:
(§1) In the standard implementation of the test, seeds of various broad-leaved weed and weed grass biotypes (origins) were sown in an 8-13 cm diameter pot filled with natural soil of a standard field soil (loamy silt; non-sterile) and covered with a covering soil layer of about 1 cm. The pots were then cultivated in a greenhouse (12-16 h light, temperature day 20-22° C., night 15-18° C.) until the time of application. The pots were treated on a laboratory track sprayer with spray liquors comprising the compositions according to the invention, mixtures of the prior art or the components applied individually. Application of the active compounds or active compound combinations formulated as WG, WP, EC or otherwise was carried out at the appropriate growth stages of the plants. The amount of water used for spray application was 100-600 I/ha. After the treatment, the plants were returned to the greenhouses.
(§2) About 3 weeks after the application, the soil action or/and foliar action was assessed visually according to a scale of 0-100% in comparison to an untreated comparative group: 0%=no noticable effect compared to the untreated comparative group; 100%=full effect compared to the untreated comparative group.
(§3) 2. Post-emergence action against weeds: seeds of various broad-leaved weed and weed grass biotypes (origins) were sown in an 8-13 cm diameter pot filled with natural soil of a standard field soil (loamy silt; non-sterile) and covered with a covering soil layer of about 1 cm. […]
(§4) Insofar as herbicidal effects of the compositions according to the invention compared to mixtures of the prior art or compared to components applied individually against economically important mono- and dicotyledonous harmful plants were the center of attention, the synergistic herbicidal activities were calculated using Colby's formula (cf. S. R. Colby; Weeds 15 (1967), 20-22): E^C=(A+B+C)−(A×B+A×C+B×C)/100+(A×B×C)/10000 […]
(§5) Δ=difference (%) of the measured value (%) to the expected value (%) (measured value minus expected value) […]

Assay [2] relates to LOLSS resistant to HRAC group B. The assay can be described thus: Greenhouse post-emergence herbicidal action on resistant Lolium biotype (HRAC group B resistant). To be noted: post-emergence (PO, BBCH 11); dose g of AS/ha: flufenacet 60, aclonifen 150, diflufenican 37.5, (A)+(B)+(C) 60+150+37.5, pinoxaden+cloquintocet-mexyl 60+15, mesosulfuron+iodosulfuron+mefenpyr 15+3+45. The format is in vivo, Lolium spp. Here is the method: as §1, §2, §3, §4, §5

For `Nc1c([N+](=O)[O-])ccc(Oc2ccccc2)c1Cl` [aclonifen (B), 2-chloro-6-nitro-3-phenoxybenzenamine], the “herbicidal effect (visual score 0-100% vs untreated), LOLSS resistant to HRAC group A” value in assay [1] is 5%. Moreover, the “herbicidal effect (visual score 0-100% vs untreated), LOLSS resistant to HRAC group B” value in assay [2] is recorded as 38%.

As to `O=C(Nc1ccc(F)cc1F)c1cccnc1Oc1cccc(C(F)(F)F)c1` [diflufenican (C), N-(2,4-difluorophenyl)-2-[3-(trifluoromethyl)phenoxy]-3-pyridinecarboxamide], the “herbicidal effect (visual score 0-100% vs untreated), LOLSS resistant to HRAC group A” value in assay [1] came out at 23%. The “herbicidal effect (visual score 0-100% vs untreated), LOLSS resistant to HRAC group B” value in assay [2] stood at 35%.

As to `CC(C)N(C(=O)COc1nnc(C(F)(F)F)s1)c1ccc(F)cc1` [flufenacet (A), N-(4-fluorophenyl)-N-(1-methylethyl)-2-[[5-(trifluoromethyl)-1,3,4-thiadiazol-2-yl]oxy]acetamide], in assay [1], the “herbicidal effect (visual score 0-100% vs untreated), LOLSS resistant to HRAC group A” value is 18%. Further, in assay [2], the “herbicidal effect (visual score 0-100% vs untreated), LOLSS resistant to HRAC group B” value came to 60%.
